Here are results for 36 molecules from ChEMBL document CHEMBL4616598 (Bioorg Med Chem, 2020).

The species entered for one experiment is Homo sapiens. The experiment is described as follows: Selectivity ratio of Ki for displacement of [3H]-5-carboxamidotryptamine from human 5-HT1A receptor expressed in HEK293T cell membranes to Ki for displacement of [3H]-5-carboxamidotryptamine from human 5-HT7 receptor expressed in HEK293 cell membranes.
Experiment [1] concerns the target 5-hydroxytryptamine receptor 7 (Homo sapiens, UniProt P34969). Kind of experiment: Displacement of [3H]-5-carboxamidotryptamine from human 5-HT7A receptor expressed in HEK293 cell membranes incubated for 90 mins by scintillation counting method.
The target in experiment [2] is T1, 5-hydroxytryptamine receptor 1A (Homo sapiens, UniProt P08908).
T1 sequence (P08908 whole entry): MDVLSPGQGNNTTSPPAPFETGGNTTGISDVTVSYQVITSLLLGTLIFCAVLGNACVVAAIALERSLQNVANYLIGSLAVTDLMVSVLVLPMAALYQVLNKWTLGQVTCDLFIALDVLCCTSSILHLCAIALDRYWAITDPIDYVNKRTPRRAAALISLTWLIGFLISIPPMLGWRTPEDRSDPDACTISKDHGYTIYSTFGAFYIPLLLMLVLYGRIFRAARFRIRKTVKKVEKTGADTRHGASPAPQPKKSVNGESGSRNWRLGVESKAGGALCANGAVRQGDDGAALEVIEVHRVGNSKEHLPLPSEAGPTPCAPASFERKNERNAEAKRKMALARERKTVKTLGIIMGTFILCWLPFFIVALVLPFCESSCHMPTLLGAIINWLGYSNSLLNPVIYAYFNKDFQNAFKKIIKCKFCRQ
The experiment is described as follows: Displacement of [3H]-5-carboxamidotryptamine from human 5-HT1A receptor expressed in HEK293T cell membranes incubated for 90 mins by scintillation counting method. Further details: species or system HEK-293T. On the technique in general: In a radioligand displacement assay an active substance lowers the binding of a labelled ligand.

pKi: −log10 of the molar value.

5-hydroxytryptamine receptor 7, sequence (P34969 whole entry): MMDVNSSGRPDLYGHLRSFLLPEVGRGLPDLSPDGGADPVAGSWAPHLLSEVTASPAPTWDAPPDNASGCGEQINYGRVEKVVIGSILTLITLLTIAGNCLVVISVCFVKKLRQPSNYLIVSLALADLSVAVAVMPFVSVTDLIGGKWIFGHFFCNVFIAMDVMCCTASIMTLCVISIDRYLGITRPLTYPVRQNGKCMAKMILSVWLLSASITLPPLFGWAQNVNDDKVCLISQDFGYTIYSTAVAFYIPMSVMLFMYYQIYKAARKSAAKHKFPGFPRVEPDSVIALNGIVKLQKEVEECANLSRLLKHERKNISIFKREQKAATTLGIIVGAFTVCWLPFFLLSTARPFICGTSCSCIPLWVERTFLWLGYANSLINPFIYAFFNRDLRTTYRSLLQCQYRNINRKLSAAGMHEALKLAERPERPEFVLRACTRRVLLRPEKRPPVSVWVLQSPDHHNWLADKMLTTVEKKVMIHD

The pKi is the Ki on a negative log10 scale, so that one unit is a factor of ten. With `COc1cccc(-c2cccc3c2CCC(N(C)C)C3)c1` (racemic), the Ratio Ki in the experiment filed under Homo sapiens was determined as 2.6. Moreover, the pKi in experiment [1] was 7.55; in experiment [2] it was 7.14.
As to `CN(C)[C@@H]1CCc2c(cccc2-c2ccccc2F)C1`, the pKi in experiment [1] was 6.13.
Take `CCCN(CCC)[C@@H]1CCc2c(cccc2-c2ccccc2F)C1`: the Ratio Ki in the experiment filed under Homo sapiens is 0.12. Further, the pKi in experiment [1] was 6.13; in experiment [2], 7.04.
For the molecule `CN(C)[C@H]1CCc2c(cccc2-c2ccc(Cl)cc2)C1`, in the experiment listed under Homo sapiens, the Ratio Ki was 1.2. The values for the negative-log Ki (pKi) in experiment [1] and in experiment [2] were 6.80 and 6.72, respectively.
With `CN(C)[C@H]1CCc2c(cccc2-c2cccn2C)C1`, the Ratio Ki in the experiment listed under Homo sapiens came out at 0.72. For the same molecule, the negative logarithm of the Ki (pKi) is 7.48 in experiment [1] and 7.62 in experiment [2].
Taken in the same sequence, the figures for `CN(C)[C@@H]1CCc2c(cccc2-c2cccs2)C1` were 0.83, 6.74 and 6.82.
Taken in the same sequence, the figures for `CN(C)C1CCc2c(cccc2-c2cncc3ccccc23)C1` (racemic) were 6.7, 7.01 and 6.19.
The corresponding values for `CN(C)[C@@H]1CCc2c(cccc2-c2ccc(Cl)cc2)C1` are 0.23, 7.08 and 7.72.
Regarding `CN(C)C1CCc2c(cccc2-c2ccccc2Cl)C1` (racemic), the Ratio Ki in the experiment filed under Homo sapiens worked out at 3.3. In addition, the values for the pKi in experiment [1] and in experiment [2] were 8.38 and 7.85, respectively.
On to `CN(C)[C@H]1CCc2c(cccc2-c2ccccc2)C1`, for which the Ratio Ki in the experiment listed under Homo sapiens stood at 0.66. The same molecule had a pKi in experiment [1] of 8.02.
Regarding `CN(C)[C@H]1CCc2c(cccc2-c2cc(C(F)(F)F)cc(C(F)(F)F)c2)C1`, the Ratio Ki in the experiment listed under Homo sapiens is 2.5. Further, in experiment [2], the negative logarithm of the Ki (pKi) was 5.65.
Consider `CN(C)C1CCc2c(cccc2-c2cccc(C(F)(F)F)c2)C1` (racemic), for which the Ratio Ki in the experiment listed under Homo sapiens was 2.9. The pKi in experiment [2] is 6.74.
For `CN(C)C1CCc2c(cccc2-c2cc(F)cc(F)c2)C1` (racemic), the Ratio Ki in the experiment listed under Homo sapiens is 1.3. In experiment [2], this molecule gave a negative-log Ki (pKi) of 6.64.
Take `CCCN(CCC)[C@H]1CCc2c(cccc2-c2ccccc2)C1`: the Ratio Ki in the experiment filed under Homo sapiens was 0.17.
On to `CN(C)[C@H]1CCc2c(cccc2-c2cccc3ccccc23)C1`, for which the Ratio Ki in the experiment filed under Homo sapiens was found to be 12.
On to `CN(C)[C@H]1CCc2c(cccc2-c2cccs2)C1`, for which, in the experiment filed under Homo sapiens, the Ratio Ki stood at 0.26. Also, the pKi in experiment [1] is 7.77; in experiment [2], 8.35.
The corresponding values for `CN(C)C1CCc2c(cccc2-c2ccc(F)cc2Cl)C1` (racemic) are 2.1, 7.80 and 7.48.
With `CCCN(CCC)[C@H]1CCc2c(cccc2-c2ccccc2Cl)C1`, the Ratio Ki in the experiment listed under Homo sapiens amounted to 0.11. The pKi in experiment [2] was 9.19.
Consider `CN(C)C1CCc2c(cccc2-c2cccc(F)c2)C1` (racemic), for which the Ratio Ki in the experiment listed under Homo sapiens amounted to 1.3. The pKi is 7.74 in experiment [1] and 7.64 in experiment [2].
Take `CCCN(CCC)[C@H]1CCc2c(cccc2-c2ccccc2F)C1`: the Ratio Ki in the experiment filed under Homo sapiens came out at 0.34. The pKi in experiment [1] is 8.28; in experiment [2], 8.74.
The corresponding values for `CN(C)C1CCc2c(cccc2-c2c3ccccc3cc3ccccc23)C1` (racemic) are 3.1, 6.35 and 5.85.
Taken in the same sequence, the figures for `CN(C)C1CCc2c(cccc2-c2cc(Cl)cc(Cl)c2)C1` (racemic) were 5.5, 6.40 and 5.66.
`CN(C)[C@H]1CCc2c(cccc2-c2ccco2)C1`: the Ratio Ki in the experiment filed under Homo sapiens was 0.46. For the same molecule, the negative logarithm of the Ki (pKi) in experiment [1] was 7.15.
`CN(C)[C@@H]1CCc2c(cccc2-c2ccco2)C1`: the Ratio Ki in the experiment listed under Homo sapiens came to 2.2. Also, the negative logarithm of the Ki (pKi) in experiment [1] is 5.59; in experiment [2], 5.25.
Regarding `CN(C)C1CCc2c(cccc2C2CCCC2)C1` (racemic), the Ratio Ki in the experiment listed under Homo sapiens amounted to 0.41. For the same molecule, in experiment [2], the negative logarithm of the Ki (pKi) was 7.01.
With `Fc1ccccc1-c1cccc2c1CCC(N1CCCC1)C2` (racemic), the Ratio Ki in the experiment filed under Homo sapiens was determined as 0.025.
Turning to `CN(C)[C@@H]1CCc2c(cccc2-c2ccccc2)C1`, the Ratio Ki in the experiment filed under Homo sapiens came out at 0.21. In addition, the negative-log Ki (pKi) in experiment [1] was 5.28; in experiment [2], 5.96.
Regarding `CN(C)[C@H]1CCc2c(cccc2-c2ccccc2Cl)C1`, in the experiment listed under Homo sapiens, the Ratio Ki is 7.6.
Take `CN(C)C1CCc2c(cccc2-c2ccc(F)cc2)C1` (racemic): the Ratio Ki in the experiment filed under Homo sapiens was 0.26. The negative logarithm of the Ki (pKi) in experiment [1] is 6.93; in experiment [2] it was 7.52.
Taken in the same sequence, the figures for `CCCN(CCC)[C@@H]1CCc2c(cccc2-c2ccccc2Cl)C1` were 0.33, 6.41 and 6.89.
The corresponding values for `CN(C)C1CCc2c(cccc2-c2cccc(Cl)c2)C1` (racemic) are 3.2, 7.59 and 7.09.
The corresponding values for `CCCN(CCC)[C@@H]1CCc2c(cccc2-c2ccccc2)C1` are 1.1, 6.72 and 6.68.
Consider `Cc1nn(C)c(C)c1-c1cccc2c1CC[C@H](N(C)C)C2`, for which the Ratio Ki in the experiment filed under Homo sapiens turned out to be 20.
Consider `CN(C)C1CCc2c(cccc2-c2cccc3ccccc23)C1` (racemic), for which the Ratio Ki in the experiment listed under Homo sapiens was found to be 5.9. Moreover, the negative-log Ki (pKi) in experiment [1] is 7.66; in experiment [2], 6.89.
`CN(C)[C@@H]1CCc2c(cccc2-c2cc(C(F)(F)F)cc(C(F)(F)F)c2)C1`: the pKi in experiment [1] and in experiment [2] was less than 5.00 throughout.
`CN(C)[C@@H]1CCc2c(cccc2-c2cccn2C)C1`: the Ratio Ki in the experiment listed under Homo sapiens came to 0.92. The molecule also had a negative-log Ki (pKi) in experiment [1] of 6.22.
